This is an account of results in article PMC2928581 (Nature communications, 2010).

The assay concerns the target TRPML1 (ML1) (Mus musculus, UniProt Q99J21). Description: whole-endolysosome patch clamp, current activation. The class given is biochemical. On the technique in general: Patch clamp records ionic current or voltage across a cell membrane.

TRPML1 (ML1), sequence (Q99J21 whole entry): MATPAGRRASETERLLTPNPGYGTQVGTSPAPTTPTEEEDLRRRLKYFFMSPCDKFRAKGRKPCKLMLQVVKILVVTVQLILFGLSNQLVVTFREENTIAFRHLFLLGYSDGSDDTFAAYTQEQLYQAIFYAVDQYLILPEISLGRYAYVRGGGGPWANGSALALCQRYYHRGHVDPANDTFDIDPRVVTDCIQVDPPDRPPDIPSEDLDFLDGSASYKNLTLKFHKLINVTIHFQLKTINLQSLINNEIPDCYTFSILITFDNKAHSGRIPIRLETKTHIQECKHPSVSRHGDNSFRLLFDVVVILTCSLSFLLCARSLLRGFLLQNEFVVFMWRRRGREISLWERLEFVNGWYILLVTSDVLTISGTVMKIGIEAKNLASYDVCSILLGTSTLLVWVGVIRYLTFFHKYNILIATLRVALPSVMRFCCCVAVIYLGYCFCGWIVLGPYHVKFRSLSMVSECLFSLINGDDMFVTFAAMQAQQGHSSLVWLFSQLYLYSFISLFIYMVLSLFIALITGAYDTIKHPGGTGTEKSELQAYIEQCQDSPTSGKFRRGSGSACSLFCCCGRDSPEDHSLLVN

Turning to `CCCCCCCC(=O)OC[C@H](COP(=O)(O)O[C@@H]1[C@H](O)[C@H](OP(=O)(O)O)[C@@H](O)[C@H](OP(=O)(O)O)[C@H]1O)OC(=O)CCCCCCC` [PI(3,5)P2 (diC8)], the midpoint of the response, the EC50, lay at 48 ± 14 nM.
